Data published in PubChem BioAssay (NCI).
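Step 1: Grow cells in 96-well plates. Step 2: Expose to compound for 48 hours at 5 concentrations. Step 3: Interpolate endpoints linearly; if unreached, use highest concentration. TGI marks complete inhibition of growth.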

How the values were obtained:
Experiment in all cases: growth of human tumour cells (NCI), 48 h
[1] = system: NCI-H460 lung
[2] = system: A549 NSCLC
[3] = system: UO-31 renal
[4] = system: MDA-N
[5] = system: MOLT-4 leukemia
[6] = system: SF-268 CNS
[7] = system: IGROV1 ovarian
[8] = system: OVCAR-8 ovarian
[9] = system: HCT-15 colon
[10] = system: OVCAR-5 ovarian
[11] = system: K-562 leukemia
[12] = system: NCI-H23 lung
[13] = system: CCRF-CEM leukemia
[14] = system: 786-0 renal
[15] = system: SNB-19 CNS
[16] = system: ACHN renal
[17] = system: MALME-3M melanoma
[18] = system: RPMI-8226 leukemia
[19] = system: NCI/ADR-RES ovarian
[20] = system: SW-620 colon
[21] = system: UACC-257 melanoma
[22] = system: PC-3 prostate
[23] = system: UACC-62 melanoma
[24] = system: OVCAR-3 ovarian
[25] = system: RXF 393 renal
[26] = system: KM12 colon
[27] = system: CAKI-1 renal
[28] = system: SK-MEL-2 melanoma
[29] = system: HOP-92 NSCLC
[30] = system: TK-10 renal
[31] = system: NCI-H226 lung
[32] = system: LOX IMVI melanoma
[33] = system: COLO 205 colon
[34] = system: HOP-62 NSCLC
[35] = system: HCT-116 colon
[36] = system: MCF7 breast
[37] = system: OVCAR-4 ovarian
[38] = system: A498 renal
[39] = system: M14 melanoma
[40] = system: HT29 colon
[41] = system: SK-MEL-28 melanoma
[42] = system: SK-MEL-5 melanoma
[43] = system: HS 578T breast
[44] = system: SN12C renal
[45] = system: NCI-H522 lung
[46] = system: BT-549 breast
[47] = system: U251 CNS
[48] = system: SF-295 CNS
[49] = system: DU-145 prostate
[50] = system: EKVX NSCLC
[51] = system: MDA-MB-231 breast
[52] = system: MDA-MB-435

Measured: TGI

Cc1n[nH]c(=O)n1N=C(c1ccccc1)c1ccccc1
> 100 µM: [1] | [2] | [3] | [4] | [5] | [6] | [7] | [8] | [9] | [10] | [11] | [12] | [13] | [14] | [15] | [16] | [17] | [18] | [19] | [20] | [21] | [22] | [23] | [24] | [25] | [26] | [27] | [28] | [29] | [30] | [31] | [32] | [33] | [34] | [35] | [36] | [37] | [38] | [39] | [40] | [41] | [42] | [43] | [44] | [45] | [46] | [47] | [48] | [49] | [50] | [51] | [52]
